From the NIST ThermoML archive (doi:10.1016/j.fluid.2015.03.053)
Numbers after ± are expanded uncertainties.

Tests used:
[1] = Crystal; DTA
[2] = Molar enthalpy of transition or fusion; settings: Crystal; DSC

Normal melting temperature [1] [°C] | Molar enthalpy of transition or fusion [2] [kcal/mol] | Compound
74.6 ± 0.39 | – | CC(C)Cc1ccc(C(C)C(=O)O)cc1 (stereo not given) [ibuprofen]
172.69 ± 1.1 | – | NNC(=O)c1ccncc1 [isonicotinic acid hydrazide]
– | 7.67 ± 0.167 | CC(=O)N[C@@H](CS)C(=O)O [N-acetyl-L-cysteine]
43.6 ± 0.5 | – | CC1=CC(=O)C(C(C)C)=CC1=O [2-isopropyl-5-methylcyclohexa-2,5-diene-1,4-dione]

Compound | Normal melting temperature [1] [°C] | Molar enthalpy of transition or fusion [2] [kcal/mol]
O=c1cc(O)c2ccccc2o1 [4-hydroxycoumarin] | 215.2 ± 0.39 | –
